The source of these data is DBAASP.

Values after ≈ are worked out from the molar mass of the structure shown. Values joined by “and” are separate entries in the source; they are usually repeats but may differ in a detail not shown here. Equal entries are not always repeated.

Test systems include Escherichia coli BL21AI; Escherichia coli; Bacillus subtilis.
What all share (assay): ≥ marks a high value that may be exact or a test limit, other limits are often not marked, values filed in µg/mL are converted to µM
For experiment [1], the system named is Bacillus subtilis ATCC 6633.
Experiment [2] relates to Klebsiella pneumoniae ATCC 27736.
Experiment [3] deals with Pseudomonas aeruginosa ATCC BAA-427.
Experiment [4] has as its system Micrococcus luteus ATCC 10240.
The test system of experiment [5] is Streptococcus pyogenes ATCC 19615.
The test system of experiment [6] is Enterococcus faecalis ATCC 29212.
Experiment [7] has as its system Salmonella enterica subsp. enterica serovar Typhimurium ATCC 14028.
For experiment [8], the system named is Staphylococcus aureus ATCC 25923.
The test system of experiment [9] is Pseudomonas aeruginosa ATCC 27853.
The test system of experiment [10] is Klebsiella pneumoniae ATCC 13883.
Experiment [11] deals with Escherichia coli BL21(DE3).

Regarding `CC[C@H](C)[C@H](NC(=O)CNC(=O)[C@H](CCCN=C(N)N)NC(=O)[C@H](Cc1ccccc1)NC(=O)[C@H](C)NC(=O)[C@H](Cc1cnc[nH]1)NC(=O)[C@H](Cc1cnc[nH]1)NC(=O)[C@H](Cc1ccccc1)NC(=O)[C@@H](N)Cc1ccccc1)C(=O)N[C@H](C(=O)N[C@@H](Cc1cnc[nH]1)C(=O)N[C@H](C(=O)NCC(=O)N[C@@H](CCCCN)C(=O)N[C@H](C(=O)N[C@H](C(=O)N[C@@H](Cc1cnc[nH]1)C(=O)N[C@@H](CCCN=C(N)N)C(=O)N[C@@H](CC(C)C)C(=O)N[C@H](C(=O)N[C@H](C(=O)NCC(N)=O)[C@@H](C)O)C(C)C)[C@@H](C)CC)[C@@H](C)O)C(C)C)C(C)C` [FFHHAFRGIVHVGKTIHRLVTG], the minimum inhibitory concentration (MIC) in experiment [1] was found to be 16 µM (≈ 40.5 µg/mL); in [2] it was 12 µM (≈ 30.3 µg/mL); in experiment [3] it was 20 µM (≈ 50.6 µg/mL).

On to `CC[C@H](C)[C@H](NC(=O)[C@@H]1CCCN1C(=O)[C@H](CCCN=C(N)N)NC(=O)[C@@H]1CCCN1C(=O)[C@H](Cc1cnc[nH]1)NC(=O)[C@@H]1CCCN1C(=O)[C@@H]1CCCN1C(=O)[C@H](CCCN=C(N)N)NC(=O)[C@@H]1CCCN1C(=O)[C@H](CCC(N)=O)NC(=O)[C@@H]1CCCN1C(=O)[C@@H](NC(=O)[C@H](Cc1ccc(O)cc1)NC(=O)[C@@H](NC(=O)[C@@H]1CCCN1C(=O)[C@H](CCCN=C(N)N)NC(=O)[C@H](CC(N)=O)NC(=O)[C@H](CC(N)=O)NC(=O)CN)C(C)C)[C@@H](C)CC)C(=O)N[C@@H](CCCN=C(N)N)C(=O)N[C@H](C(=O)O)C(C)C` [GNNRPVYIPQPRPPHPRPIRV], for which the MIC in experiment [4] stood at 0.199 µM (≈ 0.49 µg/mL); against Escherichia coli BL21AI, 6.35 µM (≈ 15.6 µg/mL).

On to `CC(C)C[C@H](NC(=O)[C@H](CCCN=C(N)N)NC(=O)CNC(=O)CNC(=O)[C@@H](N)CCCN=C(N)N)C(=O)N[C@@H](Cc1ccc(O)cc1)C(=O)N[C@@H](CCCN=C(N)N)C(=O)N[C@@H](CCCN=C(N)N)C(=O)N[C@@H](CCCN=C(N)N)C(=O)N[C@@H](Cc1ccccc1)C(=O)N[C@H](C(=O)N[C@H](C(=O)NCC(=O)N[C@@H](CCCN=C(N)N)C(N)=O)C(C)C)C(C)C` [RGGRLYRRRFVVGR], for which the minimal inhibitory concentration (MIC) in experiment [5] turned out to be 8 µM (≈ 14 µg/mL); in experiment [6], 4 µM (≈ 6.99 µg/mL); against Escherichia coli, 4 µM (≈ 6.99 µg/mL); in experiment [7] it was 8 µM (≈ 14 µg/mL); in experiment [8] it was 2 µM (≈ 3.49 µg/mL); in experiment [9], 8 µM (≈ 14 µg/mL). In addition, the MIC (in experiment [10]; in the experiment on Bacillus subtilis) was 8 µM (≈ 14 µg/mL) each time.

Regarding `CC[C@H](C)[C@H](NC(=O)[C@H](CC(C)C)NC(=O)[C@H](Cc1c[nH]c2ccccc12)NC(=O)[C@@H](NC(=O)[C@H](CC(C)C)NC(=O)[C@H](CCCN=C(N)N)NC(=O)[C@@H](N)CCCN=C(N)N)[C@@H](C)CC)C(=O)N[C@@H](CC(C)C)C(=O)N[C@@H](CCCN=C(N)N)C(=O)N[C@@H](CC(C)C)C(=O)N[C@@H](CC(C)C)C(=O)N[C@@H](CCCN=C(N)N)C(N)=O` [RRLIWLILRLLR], the MIC in experiment [5] was 4 µM and 8 µM; in experiment [6], 4 µM and 8 µM; in [7], 8 µM and > 4 µM and 10 µM; in [9] it was 8 µM and > 4 µM and 10 µM; in experiment [10], 4 µM and 8 µM; against Bacillus subtilis, 10 µM and 4 µM and 8 µM. In [11], this compound displayed an MIC of 8 µM (≈ 13 µg/mL).

For `CC[C@H](C)[C@H](NC(=O)[C@H](CCCN=C(N)N)NC(=O)[C@H](CCCN=C(N)N)NC(=O)[C@@H]1CCCN1C(=O)[C@@H]1CCCN1C(=O)[C@H](CCCCN)NC(=O)[C@@H]1CCCN1C(=O)[C@H](CCCN=C(N)N)NC(=O)[C@@H]1CCCN1C(=O)[C@H](CC(C)C)NC(=O)[C@H](Cc1ccc(O)cc1)NC(=O)[C@@H]1CCCN1C(=O)[C@@H]1CCCN1C(=O)[C@H](CCCCN)NC(=O)[C@H](CC(=O)O)NC(=O)[C@@H](N)C(C)C)C(=O)N[C@@H](Cc1ccc(O)cc1)C(=O)N[C@@H](CC(N)=O)C(=O)N[C@@H](CC(N)=O)C(=O)N[C@@H](CCCN=C(N)N)C(=O)O` [VDKPPYLPRPKPPRRIYNNR], the MIC (in [4]; in the experiment on Escherichia coli BL21AI) was 6.46 µM (≈ 16 µg/mL) in each case.
